Assay results: ChEMBL document CHEMBL1933021, “Novel and selective spiroindoline-based inhibitors of Sky kinase” (Bioorg Med Chem Lett, 2012)
pIC50: −log10 of the molar value. Values after ≈ are worked out from the molar mass of the structure shown. Active and inactive are the calls of the source. The calls are words filed in the database; no cut-off is given here.

What was measured:
Tyro3 (Mus musculus) = assay: Inhibition of mouse Sky kinase assessed as inhibition of src substrate phosphorylation by ELISA
[1] = Oral bioavailability in Sprague-Dawley rat; assay type: ADME, organism-based; conditions: in vivo
[2] = Half life in human liver microsomes; assay type: ADME, Microsome
[3] = Permeability of the compound by PAMPA assay; assay type: ADME; conditions: read-out: permeability
[4] = Aqueous solubility of compound at pH 6.5; assay type: physicochemical
Cytochrome P450 2D6 = Cytochrome P450 2D6 (Homo sapiens, UniProt P10635); assay: Inhibition of CYP2D6 using dextromethorphan as substrate; assay type: ADME
Rattus norvegicus = assay: Volume of distribution at steady state in po dosed Sprague-Dawley rat; assay type: ADME, organism-based; conditions: in vivo
[5] = Clearance in po dosed Sprague-Dawley rat; assay type: ADME, organism-based; conditions: in vivo
[6] = Half life in po dosed Sprague-Dawley rat; assay type: ADME, organism-based; conditions: in vivo

Cytochrome P450 2D6, sequence (P10635 whole entry): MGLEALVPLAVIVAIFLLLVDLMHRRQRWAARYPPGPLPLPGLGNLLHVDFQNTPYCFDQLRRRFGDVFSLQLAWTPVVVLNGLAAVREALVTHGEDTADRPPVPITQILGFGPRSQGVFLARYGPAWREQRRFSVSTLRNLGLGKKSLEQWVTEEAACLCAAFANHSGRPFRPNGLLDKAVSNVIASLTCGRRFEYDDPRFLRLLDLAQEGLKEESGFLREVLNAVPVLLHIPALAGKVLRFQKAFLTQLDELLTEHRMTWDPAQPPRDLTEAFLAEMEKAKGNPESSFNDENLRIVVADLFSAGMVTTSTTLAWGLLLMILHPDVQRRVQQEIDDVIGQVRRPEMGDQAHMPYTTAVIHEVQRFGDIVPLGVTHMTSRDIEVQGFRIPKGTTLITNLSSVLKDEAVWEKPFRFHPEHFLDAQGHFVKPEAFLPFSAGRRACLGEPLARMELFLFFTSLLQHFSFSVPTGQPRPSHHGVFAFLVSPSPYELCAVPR

Row | SMILES | inhibition (Tyro3 (Mus musculus)) | further results
1 | NC(=O)c1ccc2cc(C(=O)N3C[C@@]4(CCN(C5CCNC5)C4)c4ccccc43)[nH]c2c1 (stereo partly specified) | Active | –
2 | O=C(c1cc2c(Cl)cccc2[nH]1)N1C[C@@]2(CCN(C3CCNC3)C2)c2ccccc21 (stereo partly specified) | Active | –
3 | O=C(c1cc2cc(Cl)ccc2[nH]1)N1C[C@@]2(CCN(C3CCNC3)C2)c2ccccc21 (stereo partly specified) | Active | –
4 | O=C(c1cc2cc(Cl)ccc2[nH]1)N1C[C@@]2(CCN(C3CCCNC3)C2)c2ccccc21 (stereo partly specified) | Active | –
5 | O=C(c1cc2cc(Cl)ccc2[nH]1)N1C[C@]2(CCN(C3CCNC3)C2)c2ccccc21 (stereo partly specified) | – | bioavailability [1]: 14%; half-life [2]: 1 h; Papp [3]: 0.03 ×10⁻⁶ cm/s; solubility [4]: 5.2 µM (≈ 2.19 µg/mL); pIC50 (Cytochrome P450 2D6): 7.85; Vdss (Rattus norvegicus): 13 L/kg; CL/F [5]: 60 mL/min/kg; half-life [6]: 3.1 h
6 | Cc1ccc(N2CC[C@]3(C2)CN(C(=O)c2cc4cc(F)ccc4[nH]2)c2ccccc23)cn1 | Active | –
7 | O=C(c1cc2cc(F)ccc2[nH]1)N1C[C@@]2(CCN(C3CCCCC3)C2)c2ccccc21 | Active | –
8 | COc1ccc2cc(C(=O)N3C[C@@]4(CCN(C5CCNC5)C4)c4ccccc43)[nH]c2c1 (stereo partly specified) | Active | –
9 | COc1ccc2[nH]c(C(=O)N3C[C@@]4(CCN(C5CCNC5)C4)c4ccccc43)cc2c1 (stereo partly specified) | Active | –

Further lines, with some results ahead:

Row | inhibition (Tyro3 (Mus musculus)) | SMILES | further results
10 | Active | Cc1ccc2[nH]c(C(=O)N3C[C@@]4(CCN(C5CCNC5)C4)c4ccccc43)cc2c1 (stereo partly specified) | –
11 | Active | O=C(c1cc2cc(F)ccc2[nH]1)N1C[C@@]2(CCN(C3CNC3)C2)c2ccccc21 | –
12 | Active | O=C(c1cc2cc(Cl)ccc2[nH]1)N1C[C@@]2(CCN(C3CCNCC3)C2)c2ccccc21 | –
13 | Active | CCN1CCCC(N2CC[C@@]3(CN(C(=O)c4cc5cc(F)ccc5[nH]4)c4ccccc43)C2)C1 (stereo partly specified) | –
14 | Active | O=C(c1cc2cc(F)ccc2[nH]1)N1C[C@@]2(CCN(CC3CCCNC3)C2)c2ccccc21 (stereo partly specified) | –
